Source: patent US11752103B2, “Tramadol hydrochloride solution” (Athena Bioscience, LLC, priority 2019, dated 2023)
Structures can show the parent of a compound that is named as a salt.

Columns and labels:
[1] = Physicochemical data of tramadol hydrochloride
Description: Therefore, the Ex. 2 solution was evaluated for further studies.

[2] = animal models; times more potent than tramadol; cited from earlier work
[3] = test system: μ-opioid receptors; settings: times more potent than tramadol; cited from earlier work

SMILES | pH of tramadol hydrochloride [1] | pKa [1] | solubility ([1]; pH of about 4.5) | potency in producing analgesia relative to tramadol [2] | potency in μ-opioid binding relative to tramadol [3] [times]
COc1cccc(C2(O)CCCCC2CN(C)C)c1 (mixture of isomers) [tramadol hydrochloride, (±) cis-2-[(dimethylamino)methyl]-1-(3-methoxyphenyl)cyclohexan-1-ol, hydrochloride] | about 5.3 | 9.8 | freely soluble | – | –
CN(C)C[C@@H]1CCCC[C@@]1(O)c1cccc(O)c1 (relative stereo) [ODMT, 3-[cis-2-[(dimethylamino)methyl]-1-hydroxycyclohexyl]-phenol] | – | – | – | up to 6 times | 200
